US6482423B1, “Antimicrobial wipes which provide improved residual benefit versus gram positive bacteria” (The Procter & Gamble Company, priority 1999, dated 2002)

System: Vibrio fischerio
Test: Microtox Response Test (bioluminescence of Microtox Acute Toxicity Reagent)
Assay type: cell-based
Conditions: pure anionic surfactant; index from EC50 Value (ppm) decreasing bioluminescence by 50%, 5 minutes
Text: The biological activity/mildness of a pure surfactant can measured directly via a Microtox Response Test hereinafter described in the Analytical Methods section and can be reported as a Microtox Response Index. By “pure surfactant” it is meant a chemical composition consisting essentially of a single surfactant entity, wherein the entity has essentially one chain length, head group and salt counter ion. From a standpoint of high biological activity, preferred anionic surfactants of the antimicrobial cleansing compositions of the present invention have a Microtox Response Index of less that about 150, more preferably less than about 100 and most preferably less than about 50. […]
For surfactant compositions which are mixtures of surfactants rather than pure surfactants (this includes “commercial grade” surfactants which typically comprise mixtures of entities with different chain lengths and potentially have higher levels of impurities), the Microtox Response Index for any individual surfactant component is not a reliable measurement of biological activity or mildness. In the case of mixtures, the Microtox Index of each individual component can be determined and the weighted average used as the Index for the mixture if all the individual components of the mixture are known. […]

| Compound | Microtox Index |
| --- | --- |
| CCCCCCCCCCCCOS(=O)(=O)O.N [ALS, ammonium lauryl sulfate] | 1.0 |
| ammonium laureth-3 sulfate | 120 |
